Test results as given in US4226879A, “Antibiotic composition” (Kyowa Hakko Kogyo Kabushiki Kaisha, priority 1976, dated 1980).
In brackets after ≈: the same amount, converted by molar mass. Entries after “also recorded” stand apart in the source; their conditions may differ.

Experiments:
[1] = tested on: Trichophyton mentagrophytes; experiment: MIC, agar dilution method; format: cell-based; conditions: pH 6.8, 27° C. 72 hours
Eimeria maxima = experiment: anticoccidial activity; format: in vivo
Sclerotinia cinerea = experiment: MIC, agar dilution method; format: cell-based; conditions: pH 6.8, 27° C. 72 hours
Cryptococcus neoformans = experiment: MIC, agar dilution method; format: cell-based; conditions: pH 6.8, 27° C. 72 hours
poultry [2] = experiment: growth-promoting effect in poultry; format: in vivo; conditions: 0.001 to 0.02% by weight of the diet
From the text: Thus, AM-1042 is potentially of interest owing to its growth-promoting effect. For this purpose, the mode of administration is analogous to those described above.

Micrococcus flavus 16 = experiment: MIC, agar dilution method; format: cell-based; conditions: pH 7.0, 37° C., 18 hours
Alternaria kikuchiana = experiment: MIC, agar dilution method; format: cell-based; conditions: pH 6.8, 27° C. 72 hours
B. cereus T = experiment: MIC, agar dilution method; format: cell-based
Gram-negative bacteria = experiment: growth inhibition, agar dilution method; format: cell-based; conditions: at concentration below 100 mcg/ml
Method: (§1) Table 1 indicates the antibacterial and antifungal activity of AM-1042 as minimum inhibitory concentration (mcg/ml) determined by the agar dilution method.
(§2) *Peptone 0.5%; meat extract 0.5%; agar 1.2% (pH 7.0), 37° C., 18

mice = conditions: mouse, in vivo, 450 mg/kg
Sacchromyces cerevisiae = experiment: MIC, agar dilution method; format: cell-based; conditions: pH 6.8, 27° C. 72 hours
B. subtilis ATCC 6633 = experiment: MIC, agar dilution method; format: cell-based; conditions: Bacillus subtilis, ATCC6633; pH 7.0, 37° C., 18 hours
Botrytis cinerea = experiment: MIC, agar dilution method; format: cell-based; conditions: pH 6.8, 27° C. 72 hours
[3] = tested on: S. aureus FS-1277 (penicillin-resistant); experiment: MIC, agar dilution method; format: cell-based; conditions: Staphylococcus aureus; pH 7.0, 37° C., 18 hours
Staphylococcus aureus = experiment: antibacterial activity; format: cell-based
B. megaterium APF = experiment: MIC, agar dilution method; format: cell-based; conditions: Priestia megaterium; pH 7.0, 37° C., 18 hours
[4] = tested on: Bacillus subtilis PCI 219; experiment: MIC, agar dilution method; format: cell-based; conditions: PCI219, pH 7.0, 37° C., 18 hours
[5] = tested on: Staphylococcus aureus FDA 209P; experiment: MIC, agar dilution method; format: cell-based; conditions: FDA209P, pH 7.0, 37° C., 18 hours
Eimeria acervulina = experiment: anticoccidial activity; format: in vivo
[6] = tested on: Eimeria tenella K-2, E. acervulina and E. maxima; experiment: anticoccidial test in chicks, mixed infection (Example 5); format: in vivo, E. maxima (in chicks); set-up: key to Caecal lession: -: not infected; +: light; ++: middle; +++: heavy; conditions: for RIW (ratio of the increase of the body weight): vs healthy chicks
Method: The results are shown in Table 5 where the ratio of the increase of the body weight (RIW) is calculated as follows: (RIW (%)=[weight at the completion of the test (in average)]/[weight of healthy chicks (control) in average]×100%.

Eimeria necatrix = experiment: anticoccidial activity; format: in vivo
Fusarium oxysporum = experiment: MIC, agar dilution method; format: cell-based; conditions: pH 6.8, 27° C. 72 hours
Nocardia asteroides = experiment: MIC, agar dilution method; format: cell-based
[7] = tested on: Aerobacter aerogenes IAM 1183; experiment: MIC, agar dilution method; format: cell-based; conditions: Klebsiella aerogenes, IAM1183; pH 7.0, 37° C., 18 hours
[8] = tested on: Corynebacterium paurometabolum; experiment: MIC, agar dilution method; format: cell-based; conditions: Tsukamurella paurometabola; pH 7.0, 37° C., 18 hours
Shigella sonnei E-33 = experiment: MIC, agar dilution method; format: cell-based; conditions: E33, pH 7.0, 37° C., 18 hours
Method: as §1, §2

Sarcina lutea PCI 1001 = experiment: MIC, agar dilution method; format: cell-based
Piricularia oryzae = experiment: microbe, parasite or virus in culture; format: cell-based; conditions: 72 h, pH 6.8
[9] = tested on: Klebsiella pneumoniae PCI 602; experiment: MIC, agar dilution method; format: cell-based; conditions: PCI602, pH 7.0, 37° C., 18 hours
poultry [10] = experiment: side effects in poultry; format: in vivo, poultry such as chickens; conditions: pharmaceutical composition or assorted diet, chickens, turkeys
Eimeria tenella = experiment: anticoccidial activity; format: in vivo
Eimeria brunetti = experiment: anticoccidial activity; format: in vivo
fungi = experiment: antifungal activity, agar dilution method; format: cell-based; conditions: at a concentration below 100 mcg/ml
From the text: as §1
**Potato extract containing glucose 1.0% and agar 1.2% (pH 6.8),

Escherchia coli NIHJ = experiment: MIC, agar dilution method; format: cell-based; conditions: pH 7.0, 37° C., 18 hours
B. subtilis NRRL B-558 = experiment: MIC, agar dilution method; format: cell-based; conditions: Bacillus subtilis, NRRLB558; pH 7.0, 37° C., 18 hours
[11] = tested on: Pseudomonas aerginosa P-3; experiment: MIC, agar dilution method; format: cell-based; conditions: P3, pH 7.0, 37° C., 18 hours

**Q.** `O=C(/C=C/C=C/C=C/C1CCCCC1)NC1=CC(O)(/C=C/C=C/C=C/C(=O)NC2=C(O)CCC2=O)C2OC2C1=O` (stereo not drawn) [AM-1042] was tested. Which MIC [1] did it give?
**A.** 25 µg/mL (≈ 45.7 µM)

**Q.** And the activity upon coccidiosis (Eimeria maxima)?
**A.** significantly active

**Q.** And the MIC (Sclerotinia cinerea)?
**A.** 100 µg/mL (≈ 183 µM)

**Q.** And the MIC (Cryptococcus neoformans)?
**A.** > 100 µg/mL

**Q.** And the growth-promoting effect (poultry [2])?
**A.** capable of promoting the growth of poultry; also recorded: exhibits a growth-promoting effect

**Q.** What about the MIC (Micrococcus flavus 16) of the same compound?
**A.** 1.5 µg/mL (≈ 2.74 µM)

**Q.** What about the MIC (Alternaria kikuchiana) of the same compound?
**A.** > 100 µg/mL

**Q.** What about the “activity upon Bacillus cereus” value (B. cereus T) of the same compound?
**A.** active

**Q.** What about the MIC (B. cereus T; Bacillus cereus, pH 7.0, 37° C., 18 hours) of the same compound?
**A.** 3.1 µg/mL (≈ 5.67 µM)

**Q.** What about the “effect on Gram-negative bacteria” value (Gram-negative bacteria) of the same compound?
**A.** no significant effect

**Q.** What about the “side effect on mice” value (mice) of the same compound?
**A.** no side effect

**Q.** What about the MIC (Sacchromyces cerevisiae) of the same compound?
**A.** > 100 µg/mL

**Q.** What about the MIC (B. subtilis ATCC 6633) of the same compound?
**A.** 6.2 µg/mL (≈ 11.3 µM)

**Q.** And the MIC (Botrytis cinerea)?
**A.** > 100 µg/mL

**Q.** And the MIC [3]?
**A.** 6.2 µg/mL (≈ 11.3 µM)

**Q.** What about the “activity upon Staphylococcus aureus” value (Staphylococcus aureus) of the same compound?
**A.** active

**Q.** What about the MIC (B. megaterium APF) of the same compound?
**A.** 6.2 µg/mL (≈ 11.3 µM)

**Q.** What about the MIC [4] of the same compound?
**A.** 3.1 µg/mL (≈ 5.67 µM)

**Q.** And the MIC [5]?
**A.** 3.1 µg/mL (≈ 5.67 µM)

**Q.** What about the activity upon coccidiosis (Eimeria acervulina) of the same compound?
**A.** significantly active

**Q.** What about the Caecal lession ([6]; 0.005 % AM-1042 (Test-5)) of the same compound?
**A.** +

**Q.** What about the Survival ratio ([6]; 0.005 % AM-1042 (Test-5)) of the same compound?
**A.** 90%

**Q.** And the “RIW (ratio of the increase of the body weight)” value ([6]; 0.005 % AM-1042 (Test-5))?
**A.** 98.7%

**Q.** What about the Caecal lession ([6]; 0.0075 % AM-1042 (Test-4)) of the same compound?
**A.** -

**Q.** What about the Survival ratio ([6]; 0.0075 % AM-1042 (Test-4)) of the same compound?
**A.** 100%

**Q.** And the “RIW (ratio of the increase of the body weight)” value ([6]; 0.0075 % AM-1042 (Test-4))?
**A.** 99.9%

**Q.** And the Caecal lession ([6]; 0.01 % AM-1042 (Test-3))?
**A.** -

**Q.** What about the Survival ratio ([6]; 0.01 % AM-1042 (Test-3)) of the same compound?
**A.** 100%

**Q.** And the “RIW (ratio of the increase of the body weight)” value ([6]; 0.01 % AM-1042 (Test-3))?
**A.** 100.8%

**Q.** And the Caecal lession ([6]; 0.015 % AM-1042 (Test-2))?
**A.** -

**Q.** What about the Survival ratio ([6]; 0.015 % AM-1042 (Test-2)) of the same compound?
**A.** 100%

**Q.** And the “RIW (ratio of the increase of the body weight)” value ([6]; 0.015 % AM-1042 (Test-2))?
**A.** 100.5%

**Q.** And the Caecal lession ([6]; 0.02 % AM-1042 (Test-1))?
**A.** -

**Q.** What about the Survival ratio ([6]; 0.02 % AM-1042 (Test-1)) of the same compound?
**A.** 100%

**Q.** And the “RIW (ratio of the increase of the body weight)” value ([6]; 0.02 % AM-1042 (Test-1))?
**A.** 100.2%

**Q.** And the activity upon coccidiosis (Eimeria necatrix)?
**A.** significantly active

**Q.** And the MIC (Fusarium oxysporum)?
**A.** > 100 µg/mL

**Q.** And the “activity upon Nocarida asteroides” value (Nocardia asteroides)?
**A.** active

**Q.** What about the MIC (Nocardia asteroides; Nocardia asteroides, pH 7.0, 37° C., 18 hours) of the same compound?
**A.** 1.56 µg/mL (≈ 2.85 µM)

**Q.** What about the MIC [7] of the same compound?
**A.** 100 µg/mL (≈ 183 µM)

**Q.** And the MIC [8]?
**A.** 1.56 µg/mL (≈ 2.85 µM)

**Q.** And the MIC (Shigella sonnei E-33)?
**A.** > 100 µg/mL

**Q.** And the “activity upon Sarcina lutea” value (Sarcina lutea PCI 1001)?
**A.** active

**Q.** What about the MIC (Sarcina lutea PCI 1001; Micrococcus luteus, PCI1001, pH 7.0, 37° C., 18 hours) of the same compound?
**A.** 6.2 µg/mL (≈ 11.3 µM)

**Q.** And the MIC (Piricularia oryzae)?
**A.** 100 µg/mL (≈ 183 µM)

**Q.** And the MIC [9]?
**A.** > 100 µg/mL

**Q.** And the “side effects in poultry” value (poultry [10])?
**A.** without any side effects

**Q.** And the activity upon coccidiosis (Eimeria tenella; Eimeria tenella, also when resistant to amprolium hydrochloride, clopidol, robenidine hydrochloride)?
**A.** significantly active

**Q.** What about the “reducing mortality of chicks” value (Eimeria tenella; chicks infected with Eimeria tenella) of the same compound?
**A.** effective in reducing mortality of chicks

**Q.** And the activity upon coccidiosis (Eimeria brunetti)?
**A.** significantly active

**Q.** And the activity on fungi (fungi)?
**A.** no significant activity

**Q.** What about the MIC (Escherchia coli NIHJ) of the same compound?
**A.** 100 µg/mL (≈ 183 µM)

**Q.** What about the MIC (B. subtilis NRRL B-558) of the same compound?
**A.** > 100 µg/mL

**Q.** And the MIC [11]?
**A.** > 100 µg/mL
